Source: EP4424699A1, “HBV CORE PROTEIN BINDING COMPOUNDS AND USES THEREOF” (Julius-Maximilians-Universität Würzburg, priority 2023, dated 2024)
Positions of bridges follow the written chain, without caps; N, C: chain ends. Non-standard residues stand in square brackets, D forms with d. Residues, ends and D or L forms follow the SMILES beside them. Chains are numbered I, II in the order given. AEEA = NCCOCCOCC(=O)O

Legend:
HBc capsids [1] = target: T1, HBc capsids (Hepatitis B virus genotype D subtype ayw, UniProt P03146); settings: monomeric peptides; cited from earlier work
[2] = target: full-length wild type HBc (fl wt HBc) (Hepatitis B virus genotype D subtype ayw, UniProt P03146); settings: result in words; cited from earlier work
[3] = target: HBc's interaction to the surface protein L-HBs (Hepatitis B virus genotype D subtype ayw, UniProt P03146); settings: result in words; cited from earlier work
[4] = test system: HBV production in Hep G2 human hepatoblastoma cell lines; settings: cited from earlier work; for IC50: inhibition of HBV production
fl wt HBc capsids = target: T2, fl wt HBc capsids (Hepatitis B virus genotype D subtype ayw, UniProt P03146); experiment: Isothermal titration calorimetry (ITC) of peptide dimers with HBc capsids; format: binding
T2 construct: Full length wild type (fl wt) HBc; made in house; host or cells: E. coli
Description: Binding stoichiometry, binding affinity and thermodynamic parameters were determined. Table 2 iTC200 instrument's specifications used for the interaction analysis between peptide-dimers and capsids.

HBc = target: T3, HBc (Hepatitis B virus genotype D subtype ayw, UniProt P03146); experiment: Turbidity assay of HBc solutions at 350 nm; settings: 50 µM HBc solution, RT
T3 construct: Full length wild type (fl wt) HBc; made in house; host or cells: E. coli
Description: The concentrations of the P1-, P2- and SLLGRM-dimers were varied between 0.1-100 µM and the concentration of HBc kept constant at 10 µM for the P1- and P2-dimer and at 50 µM for the SLLGRM-dimer. All experiments were performed using a standard photometer (GENESYS™ UV/VIS spectral photometer, Thermo Fisher Scientific, Hillsboro, OR, USA) at RT and at a wavelength of 350 nm using disposable UV transparent cuvettes.

physchem = settings: buffer obtained from the dialysis of capsids (buffer A), pH 7.5, aqueous buffer
Description: Purified and pooled fractions (ca 8 ml) of capsids were filtered (Rotilabo syringe filter with a pore size of 220 nm, Carl Roth GmbH Co. KG, Karlsruhe, Germany), dialysed against 1.4 L buffer A (40 mM HEPES, 200 mM NaCl, 1 mM MgCl2, 1 mM CaCl2, pH 7.5) using a dialysis membrane tube (Spectra Por Biotech cellulose ester tube, 1 MDa MWCO, Spectrum Laboratories, Inc., Rancho Dominguez, CA, USA). The dialysis was performed at 4 °C under gentle stirring for 16 h overnight. Next day, the dialysed sample was removed from the dialysis tube and concentrated in a centrifuge using a concentrator (30 kDa MWCO Spin-X UF 6 mL, Corning Inc., Corning, NY, USA). Before the determination of the concentration by the Bradford assay (Roti Nanoquant, Carl Roth GmbH Co. KG, Karlsruhe, Germany) the concentrate was filtered (centrifugal filter unit Ultrafree MC, pore size of 100 nm, Merck KGaA, Darmstadt, Germany). The dimeric peptides were dissolved in the buffer obtained from the dialysis of capsids. […] Before filling the ITC cell and syringe, all samples were degassed for 10 minutes at 20 °C (ThermoVac, Malvern Panalytical, Malvern, Worcestershire, UK). Using a MicroCal iTC200 instrument (Malvern Panalytical, Malvern, Worcestershire, UK) solutions of dimeric peptides were titrated into solutions of capsids according to specifications in the Table 2. […]

HBc capsids [5] = target: T1, HBc capsids; experiment: Cryo-EM of HBc capsids in complex with peptide dimers; format: binding; set-up: Full length wild type (fl wt) HBc; made in house; host or cells: E. coli; settings: from EM-maps
Description: In a plasma cleaner (model PDC-002. Harrick Plasma, Ithaca, NY, USA) holey carbon grids (R1.2/1.3, 300 mesh Cu grids, Quantifoil Micro Tools, Jena, Germany) were made hydrophilic by plasma discharging. This was done at a pressure of 29 Pa for 2 minutes using ambient air as plasma medium at "medium power" of the instrument. First, solutions of purified HBc (200 µM) in complex with the P1dC- and the SLLGRM-dimer (each 400 µM) were prepared in buffer A and 3.5 µl aliquots of each sample were applied onto the grids. For plunge freezing of grids ethane was used as medium (liquefied by liquid nitrogen) with the help of a Vitrobot (mark IV, FEI Company, Hillsboro, OR, USA) using filter papers of Whatman (type 541). The Vitrobot had following settings: no wait and drain times, 6 s of blot time, blot force of 25 and a nominal humidity of 100 %. The frozen grids were stored in liquid nitrogen for at least one night before being used for image acquisition.
Cryo-EM was done as previously described (Makbul, Kraft, et al., 2021). In brief: Movies were acquired with the software EPU on a Krios G3 electron microscope equipped with a Falcon III camera (Thermo Fisher Scientific, Hillsboro, OR, USA) in linear mode at a magnification of 75,000 with an accelerating voltage of 300 kV. The total exposure was 40 e-/Å^2 and was fractionated across 20 fractions. […]

[6] = target: full length wild type HBV core protein (fl wt HBc), capsids (Hepatitis B virus (genotype D; strain ayw)) (UniProt P03146); experiment: cryo-EM maps of HBc capsids with bound dimer
[7] = target: full length wild type HBV core protein (fl wt HBc), capsids (Hepatitis B virus (genotype D; strain ayw)) (UniProt P03146); experiment: ITC, dimer titrated into fl wt HBc capsids, 20 °C, one site model
[8] = target: full length wild type HBV core protein (fl wt HBc), capsids (Hepatitis B virus (genotype D; strain ayw)) (UniProt P03146); experiment: ITC KD of the dimer against the literature KD of monomeric SLLGRM

Molecule: MHRSLLGRMKGA [Pep1]
- Kd (HBc capsids [1]): 26 µM

Molecule: SLLGRM
- Kd (HBc capsids [1]): 130 µM

Molecule: LLGRMK
- binding to fl wt HBc [2]: bound

Molecule: ALLGRMKG [21]
- inhibition of HBc's interaction to L-HBs [3]: inhibited

Molecule: SLLGRMKG [23]
- IC50 [4]: 6.4 µM

Molecule: SLLGRMKGA [22]
- IC50 [4]: 2.4 µM

Molecule: CSCC[C@H](NC(=O)[C@H](CCCNC(=N)N)NC(=O)CNC(=O)[C@H](CC(C)C)NC(=O)[C@H](CC(C)C)NC(=O)[C@@H](N)CO)C(=O)NCCOCCOCC(=O)NCCOCCOCC(=O)NCCOCCOCC(=O)NCCOCCOCC(=O)NCCCC[C@@H](NC(=O)COCCOCCNC(=O)COCCOCCNC(=O)COCCOCCNC(=O)COCCOCCNC(=O)[C@H](CCSC)NC(=O)[C@H](CCCNC(=N)N)NC(=O)CNC(=O)[C@H](CC(C)C)NC(=O)[C@H](CC(C)C)NC(=O)[C@@H](N)CO)C(=O)O [SLLGRM-dimer] (I: H-SLLGRM[AEEA][AEEA][AEEA][AEEA][dK]-OH / II: H-SLLGRM[AEEA][AEEA][AEEA][AEEA]; amide I:11-II:C; N-terminus and C-terminus assumed)
- affinity increase over the respective monomers (fl wt HBc capsids; KD of dimer versus KD of monomer): 26 fold
- Ka (fl wt HBc capsids; association constant, ITC at 20 °C, refers to monomeric HBc): 208200 ±31284 (1)/(M)
- ΔH (fl wt HBc capsids; binding enthalpy, ITC): -25.316 ± 2.748 kcal/mol
- ΔS (fl wt HBc capsids; binding entropy, ITC): -62 ±10 (cal)/(mol × K)
- N (fl wt HBc capsids; stoichiometry, ITC at 20 °C, one site model, refers to monomeric HBc): 0.145 ±0.023
- concentration inducing turbidity (HBc): high micromolar concentrations
- solubility (physchem): ≥ 8 mM
- molar ratio to HBc capsids (HBc capsids [5]): 0.25

Molecule: SLLGRM-dimer (peptide)
- molar ratio [6]: 0.25
- Kd [7]: 4.89 µM
- N (stoichiometry) [7]: 0.145
- binding enthalpy (ΔH) [7]: -25300
- binding entropy (ΔS) [7]: -62
- fold affinity increase over the respective monomer [8]: 26 fold

Molecule: GSLLGRMKGA [Pep2]
- Kd (HBc capsids [1]): 68 µM
- production HB viruses reduced to ([4]; at high micromolar concentrations): ca. 30%
- IC50 [4]: 0.8 µM
